Data taken from paper PMC6052345, “Functional Analysis of the Chemosensory Protein MsepCSP8 From the Oriental Armyworm Mythimna separata” (Frontiers in Physiology, 2018).

Tests used:
Mythimna separata [1] = test: Y-tube olfactometer bioassay (before RNAi); type: in vivo; settings: for behavioral response in words: male and female moths; for behavioral response (attraction) of females: 3-day-old female moths; for behavioral response (attraction) of females / behavioral response (attraction) of males: 10 μl volatile vs liquid paraffin; for behavioral response (attraction) of males: 3-day-old male moths
Source text: Mythimna separata behavioral responses were examined by olfactometer bioassays ([Cao et al., 2015]) performed in a glass Y-tube (base = 4.0 cm diameter by 25 cm length, arms = 3.0 cm diameter by 26 cm length) using 10 different volatile compounds (Sigma-Aldrich).
Air entering the tube was passed through activated charcoal for filtration and humidified using deionised water. Filtered air was split between two chambers; one chamber containing liquid paraffin (used as control) and the other containing the test volatile. Each chamber was connected to one arm of the Y-tube. Airflow was kept constant at 6.0 l min^-1 throughout the experiment using an inline flow meter (Gilmont Instr., Barnant Co., Barrington, IL, United States). Orange light was used for this experiment. The whole experiment was conducted in a dark room, and the relative humidity and temperature were maintained at 70 ± 5% and 25 ± 1°C, respectively. A 10 μl of volatile compound was applied to 10 mm × 10 mm filter papers (Whatman No. 1) that was placed in the chamber connected to one arm of the Y-tube. A separate Y-tube was used for male and female moths.
To perform bioassays, a 3-day-old moth, either male or female, was released in the base of the Y-tube. Each insect was given 10 min to respond to the treatment, and the number of moths showing attraction, repulsion or no response was counted. Approximately 30 min before onset of the trial, male and female adults were placed into separate glass tubes (50 ml) and covered with a cotton plug to avoid exposure to tested volatiles. In total, 60 adults (30 male and 30 female) were tested per volatile compound, and χ^2 tests were applied to evaluate the number of M. separata individuals attracted to or repelled by volatiles.

MsepCSP8 = MsepCSP8 (Mythimna separata, UniProt A0A1V1WC03); test: Fluorescence competitive binding assay with 1-NPN as fluorescent probe; settings: for IC50: displacement of 1-NPN; for Ki: calculated from IC50; for binding affinity to MsepCSP8 in words: discussion of Table 1, pH not stated
Sequence of MsepCSP8 (A0A1V1WC03 entry or part of it): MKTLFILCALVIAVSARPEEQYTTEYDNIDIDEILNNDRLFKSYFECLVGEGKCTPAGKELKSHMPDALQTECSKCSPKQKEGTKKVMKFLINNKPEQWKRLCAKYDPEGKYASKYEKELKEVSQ
Procedure: The expressed protein was obtained in soluble form in the supernatant, and purification was accomplished using a Ni affinity chromatography column (GE Healthcare, Uppsala, Sweden). Bound protein was eluted by digestion with recombinant bovine enterokinase at 26°C for 15 h to remove the His-tag. Expression and purification were verified by 15% sodium dodecyl sulfate-polyacrylamide gel electrophoresis (SDS-PAGE), and protein concentration was measured as described by [Cao et al. (2017)]. Dialysis of purified protein was carried out in 30 mM Tris-HCl buffer [Tris(hydroxymethyl)aminomethane] at pH 7.4 and pH 5.0 before fluorescence binding assays, and protein was stored at -80°C until use.
Fluorescence competitive binding assays were performed to determine the binding affinity of MsepCSP8 for 56 ligands using N-phenyl-1-naphthylamine (1-NPN) as a fluorescent probe. Stock solutions of ligands were prepared in spectrophotometric-grade methanol. […] Mixtures of 1-NPN and protein were excited at 337 nm wavelength, and emission spectra were recorded from 360 to 600 nm using a fluorescence spectrophotometer (RF-5301PC Shimadzu, Kyoto, Japan). Binding of selected ligands with MsepCSP8 (1:1 protein:ligand stoichiometry) was evaluated using 1-NPN as a fluorescent probe, with the final concentration of the product ranging from 0 to 20 μM. […] Three independent measurements were made for all experiments. The binding affinity (Ki) of MsepCSP8 for all tested ligands was calculated based on IC50 values as follows:
Ki=IC50/(1 + [1−NPN]/K1–NPN)
where [1-NPN] is the free concentration of 1-NPN, and K1-NPN is the dissociation constant of the complex of MsepCSP8 and 1-NPN.

Mythimna separata [2] = test: Y-tube olfactometer bioassay after dsMsepCSP8 injection; type: in vivo; settings: males and females, 3 days post-eclosion
Procedure: The dsRNA (500 nl of 10 ng nl^-1) was injected into 3rd and 4th abdominal segment of 7-day old pupae using a microinjector (World Precision Instruments Inc., Sarasota, FL, United States) under a microscope. After injection, pupae were kept in petri dishes until eclosion at 25 ± 1°C and 70 ± 5% relative humidity. Three treatments were set up for RNAi consisting of non-injected (controls), dsGFP-injected and dsRNA-injected (dsMsepCSP8) groups. After eclosion, adults from each treatment were kept in separate containers. Three individuals of each sex from all three treatments were taken at 1, 2, 3, 4, and 5 days post-eclosion for RNAi analysis. RT-qPCR was performed using the method described above.
Y-tube bioassays were performed both before and after RNAi application to confirm the MsepCSP8 gene silencing effect. Three treatments consisting of dsGFP-injected, dsRNA-injected (dsMsepCSP8), and controls were tested on both 3-day old male and female moths.

`C=CC(O)CC` (centres unmarked) [1-Penten-3-ol] was tested, and the “behavioral response in words” value (Mythimna separata [1]) was “distinct preference”, the IC50 (MsepCSP8; IC50, pH 5.0) was 22.2 µM and the IC50 (MsepCSP8; IC50, pH 7.4) was 9.27 µM. The Ki (MsepCSP8; pH 5.0) was 16.6 µM, the Ki (MsepCSP8; pH 7.4) was 6.5 µM and the “binding affinity to MsepCSP8 in words” value (MsepCSP8) was “bound strongly”.

In the case of `CCCCCCCC=O` [Octanal], the “behavioral response in words” value (Mythimna separata [1]) is reported as “non-significant response”, the IC50 (MsepCSP8; IC50, pH 5.0) is reported as 13.7 µM and the IC50 (MsepCSP8; IC50, pH 7.4) is reported as 9.87 µM. For the same molecule, the Ki (MsepCSP8; pH 5.0) was 10.2 µM, the Ki (MsepCSP8; pH 7.4) was 6.93 µM and the “binding affinity to MsepCSP8 in words” value (MsepCSP8) was “high affinities”.

In the case of `CCCCCC=O` [Hexanal], the “behavioral response (attraction) of females” value (Mythimna separata [1]) is reported as 73.33%, the “behavioral response (attraction) of males” value (Mythimna separata [1]) is reported as 70% and the “behavioral responses of adults after dsMsepCSP8 injection” value (Mythimna separata [2]) is reported as “not significantly affect”.

In the case of `CC1=CCC(O)(C(C)C)CC1` (single isomer, unassigned; (-)) [(–)-Terpinen-4-ol], the “behavioral response in words” value (Mythimna separata [1]) is reported as “repelled”, the IC50 (MsepCSP8; IC50, pH 5.0) is reported as 9.46 µM and the IC50 (MsepCSP8; IC50, pH 7.4) is reported as 13.9 µM. The Ki (MsepCSP8; pH 5.0) was 7.06 µM, the Ki (MsepCSP8; pH 7.4) was 9.74 µM and the “binding affinity to MsepCSP8 in words” value (MsepCSP8) was “high binding affinities”.

In the case of `CCC/C=C/C=O` [Trans-2-hexenal], the “behavioral response in words” value (Mythimna separata [1]) is reported as “non-significant response”, the IC50 (MsepCSP8; IC50, pH 5.0) is reported as 8.85 µM and the IC50 (MsepCSP8; IC50, pH 7.4) is reported as 12.5 µM. For the same molecule, the Ki (MsepCSP8; pH 5.0) was 6.6 µM, the Ki (MsepCSP8; pH 7.4) was 8.8 µM and the “binding affinity to MsepCSP8 in words” value (MsepCSP8) was “high affinities”.

For `CCCCCCCCCCCC(C)=O` [2-Tridecanone], the “behavioral response in words” value (Mythimna separata [1]) was “non-significant attraction”, the IC50 (MsepCSP8; IC50, pH 5.0) was 7.75 µM and the IC50 (MsepCSP8; IC50, pH 7.4) was 9.07 µM. The Ki (MsepCSP8; pH 5.0) was 5.78 µM, the Ki (MsepCSP8; pH 7.4) was 6.37 µM and the “binding affinity to MsepCSP8 in words” value (MsepCSP8) was “high affinity”.

With `CC1=CCC(=C(C)C)CC1` [Terpinolene] the “behavioral response (attraction) of females” value (Mythimna separata [1]) was 80%, the “behavioral response (attraction) of males” value (Mythimna separata [1]) was 90% and the IC50 (MsepCSP8; IC50, pH 5.0) was 27 µM. The IC50 (MsepCSP8; IC50, pH 7.4) was 8.82 µM, the Ki (MsepCSP8; pH 5.0) was 20.1 µM and the Ki (MsepCSP8; pH 7.4) was 6.19 µM. The “binding affinity to MsepCSP8 in words” value (MsepCSP8) was “high binding affinities” and the “behavioral responses of adults after dsMsepCSP8 injection” value (Mythimna separata [2]) was “not significantly affect”.
